One assay has as its target SYK (human) (UniProt P43405). Kind of assay: KINOMEscan competition binding. The conditions noted are these: compound 10.0 µM.
In another assay the target is PRKG1 (human) (UniProt Q13976). Kind of assay: KINOMEscan competition binding. Conditions: compound 10.0 µM.
A further assay deals with TYRO3 (human) (UniProt Q06418). The assay is described as follows: KINOMEscan competition binding. The conditions noted are these: compound 10.0 µM.
A further assay addresses FRK (human) (UniProt P42685). The assay is described as follows: KINOMEscan competition binding. The conditions noted are these: compound 10.0 µM.
In another assay the target is BLK (human) (UniProt P51451). Kind of assay: KINOMEscan competition binding. The conditions noted are these: compound 10.0 µM.
For another assay, the target named is ERBB2 (human) (UniProt P04626). Kind of assay: KINOMEscan competition binding. The conditions noted are these: compound 10.0 µM.
The target in a further assay is CAMK1 (human) (UniProt Q14012). Kind of assay: KINOMEscan competition binding. The conditions noted are these: compound 10.0 µM.
The test system of assay [1] is EGFR (human), P00533 [752-759 del]. Kind of assay: KINOMEscan competition binding. The conditions noted are these: compound 10.0 µM.
The next assay concerns the target MARK3 (human) (UniProt P27448). Kind of assay: KINOMEscan competition binding. Conditions: compound 10.0 µM.
Assay [2] deals with ABL1 (human), P00519 [M351T]. The assay is described as follows: KINOMEscan competition binding. The conditions noted are these: compound 10.0 µM.
In the next assay the target is TNNI3K (human) (UniProt Q59H18). The assay is described as follows: KINOMEscan competition binding. The conditions noted are these: compound 10.0 µM.
The target of another assay is BRSK1 (human) (UniProt Q8TDC3). The assay is described as follows: KINOMEscan competition binding. The conditions noted are these: compound 10.0 µM.
The target of another assay is ALK (human) (UniProt Q9UM73). The assay is described as follows: KINOMEscan competition binding. Conditions: compound 10.0 µM.
In the next assay the target is MUSK (human) (UniProt O15146). The assay is described as follows: KINOMEscan competition binding. The conditions noted are these: compound 10.0 µM.
A further assay addresses PIM2 (human) (UniProt Q9P1W9). The assay is described as follows: SelectScreen, TR FRET.
Another assay concerns the target PIM1 (human) (UniProt P11309). The assay is described as follows: SelectScreen, TR FRET. In general terms: Time-resolved FRET reads energy transfer from a long-lived donor to a nearby acceptor.
The next assay deals with HIPK2 (human) (UniProt Q9H2X6). Kind of assay: SelectScreen, TR FRET.
Another assay concerns the target HIPK1 (human) (UniProt Q86Z02). Kind of assay: SelectScreen, TR FRET.
For assay [3], the system named is BRAF (human), P15056 [V600E]. The assay is described as follows: KINOMEscan competition binding. Conditions: compound 10.0 µM.
The target in the next assay is BRAF (human) (UniProt P15056). The assay is described as follows: KINOMEscan competition binding. Conditions: compound 10.0 µM.

pIC50: −log10 of the molar value.

Sequence of PIM1 (human) (P11309 whole entry, looked up): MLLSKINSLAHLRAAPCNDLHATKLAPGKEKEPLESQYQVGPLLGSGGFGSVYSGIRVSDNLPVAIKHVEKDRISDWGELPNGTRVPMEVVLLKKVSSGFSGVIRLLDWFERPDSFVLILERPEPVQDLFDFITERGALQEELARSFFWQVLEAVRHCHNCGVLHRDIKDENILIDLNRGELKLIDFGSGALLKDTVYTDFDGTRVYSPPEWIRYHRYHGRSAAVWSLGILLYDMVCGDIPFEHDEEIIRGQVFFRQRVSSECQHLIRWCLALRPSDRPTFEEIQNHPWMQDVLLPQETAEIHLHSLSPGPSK
Sequence of PIM2 (human) (Q9P1W9 whole entry, looked up): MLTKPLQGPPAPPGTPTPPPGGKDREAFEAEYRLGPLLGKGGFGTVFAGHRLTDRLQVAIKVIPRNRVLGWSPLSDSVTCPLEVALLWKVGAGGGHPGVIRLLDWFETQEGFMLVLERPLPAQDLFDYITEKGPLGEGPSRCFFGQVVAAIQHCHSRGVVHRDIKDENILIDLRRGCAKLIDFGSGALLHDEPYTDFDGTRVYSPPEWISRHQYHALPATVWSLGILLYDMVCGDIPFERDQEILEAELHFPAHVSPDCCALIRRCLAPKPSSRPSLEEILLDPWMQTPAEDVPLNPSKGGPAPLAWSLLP
Sequence of CAMK1 (human) (Q14012 whole entry, looked up): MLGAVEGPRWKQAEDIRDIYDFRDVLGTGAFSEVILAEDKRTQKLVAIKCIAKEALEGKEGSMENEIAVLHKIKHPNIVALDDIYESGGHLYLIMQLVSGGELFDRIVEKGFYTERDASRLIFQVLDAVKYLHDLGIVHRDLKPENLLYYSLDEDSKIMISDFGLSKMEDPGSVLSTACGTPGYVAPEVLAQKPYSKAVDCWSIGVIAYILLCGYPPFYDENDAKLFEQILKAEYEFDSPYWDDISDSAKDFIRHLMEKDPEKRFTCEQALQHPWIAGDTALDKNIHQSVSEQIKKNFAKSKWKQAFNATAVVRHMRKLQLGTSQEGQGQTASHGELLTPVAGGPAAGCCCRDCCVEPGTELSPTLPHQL
Sequence of ERBB2 (human) (P04626 whole entry, looked up): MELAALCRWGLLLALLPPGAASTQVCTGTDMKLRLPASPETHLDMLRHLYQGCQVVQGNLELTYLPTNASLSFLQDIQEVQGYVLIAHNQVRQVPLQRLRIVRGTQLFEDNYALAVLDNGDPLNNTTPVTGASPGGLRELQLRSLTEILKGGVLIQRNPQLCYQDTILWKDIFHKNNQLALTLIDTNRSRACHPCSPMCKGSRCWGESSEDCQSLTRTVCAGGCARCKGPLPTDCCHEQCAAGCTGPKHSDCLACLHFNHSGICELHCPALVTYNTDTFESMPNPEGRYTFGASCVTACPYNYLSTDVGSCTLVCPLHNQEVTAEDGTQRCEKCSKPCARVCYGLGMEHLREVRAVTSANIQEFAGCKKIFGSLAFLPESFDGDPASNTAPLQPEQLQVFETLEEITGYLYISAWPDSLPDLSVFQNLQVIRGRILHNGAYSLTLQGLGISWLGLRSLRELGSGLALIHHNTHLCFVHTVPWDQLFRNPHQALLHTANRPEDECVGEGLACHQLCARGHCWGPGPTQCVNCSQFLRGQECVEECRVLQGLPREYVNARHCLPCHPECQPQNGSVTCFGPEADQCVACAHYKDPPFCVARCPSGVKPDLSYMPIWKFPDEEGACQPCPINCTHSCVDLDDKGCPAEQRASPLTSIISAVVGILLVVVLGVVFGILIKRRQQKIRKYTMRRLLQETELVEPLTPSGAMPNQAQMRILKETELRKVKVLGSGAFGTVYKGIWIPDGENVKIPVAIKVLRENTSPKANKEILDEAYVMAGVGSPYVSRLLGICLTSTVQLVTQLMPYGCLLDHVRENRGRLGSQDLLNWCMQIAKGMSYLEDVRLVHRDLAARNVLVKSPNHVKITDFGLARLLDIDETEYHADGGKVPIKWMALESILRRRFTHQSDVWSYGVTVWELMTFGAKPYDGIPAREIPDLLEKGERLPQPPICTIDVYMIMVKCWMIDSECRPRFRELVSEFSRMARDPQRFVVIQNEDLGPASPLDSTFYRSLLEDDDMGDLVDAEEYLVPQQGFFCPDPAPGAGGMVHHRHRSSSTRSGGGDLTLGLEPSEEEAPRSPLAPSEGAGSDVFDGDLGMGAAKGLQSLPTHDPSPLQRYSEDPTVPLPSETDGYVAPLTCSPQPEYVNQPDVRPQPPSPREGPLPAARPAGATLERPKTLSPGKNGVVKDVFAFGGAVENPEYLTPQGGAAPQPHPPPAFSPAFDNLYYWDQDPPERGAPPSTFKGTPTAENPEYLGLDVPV
Sequence of MUSK (human) (O15146 whole entry, looked up): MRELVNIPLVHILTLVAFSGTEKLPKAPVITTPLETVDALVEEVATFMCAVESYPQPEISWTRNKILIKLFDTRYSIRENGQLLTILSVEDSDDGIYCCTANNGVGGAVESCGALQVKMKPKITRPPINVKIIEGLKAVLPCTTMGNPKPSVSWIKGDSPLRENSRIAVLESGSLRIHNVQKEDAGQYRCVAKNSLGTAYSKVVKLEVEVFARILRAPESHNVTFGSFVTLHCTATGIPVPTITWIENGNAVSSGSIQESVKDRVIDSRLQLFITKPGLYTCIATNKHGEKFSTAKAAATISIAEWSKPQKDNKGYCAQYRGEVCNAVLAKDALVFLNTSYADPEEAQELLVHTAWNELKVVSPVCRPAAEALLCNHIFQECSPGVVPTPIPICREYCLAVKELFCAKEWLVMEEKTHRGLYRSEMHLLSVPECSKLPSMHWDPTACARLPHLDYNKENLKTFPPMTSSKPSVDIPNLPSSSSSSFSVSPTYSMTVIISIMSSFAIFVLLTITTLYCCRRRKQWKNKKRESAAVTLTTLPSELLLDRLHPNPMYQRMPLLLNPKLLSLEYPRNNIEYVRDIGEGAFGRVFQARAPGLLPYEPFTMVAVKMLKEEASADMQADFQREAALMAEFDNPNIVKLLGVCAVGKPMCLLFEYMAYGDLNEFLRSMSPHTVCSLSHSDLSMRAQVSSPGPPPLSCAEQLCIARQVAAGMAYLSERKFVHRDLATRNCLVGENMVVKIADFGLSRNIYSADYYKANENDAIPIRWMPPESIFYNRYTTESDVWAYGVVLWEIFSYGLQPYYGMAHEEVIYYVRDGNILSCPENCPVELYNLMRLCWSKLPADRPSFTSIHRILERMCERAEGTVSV
Sequence of HIPK1 (human) (Q86Z02 whole entry, looked up): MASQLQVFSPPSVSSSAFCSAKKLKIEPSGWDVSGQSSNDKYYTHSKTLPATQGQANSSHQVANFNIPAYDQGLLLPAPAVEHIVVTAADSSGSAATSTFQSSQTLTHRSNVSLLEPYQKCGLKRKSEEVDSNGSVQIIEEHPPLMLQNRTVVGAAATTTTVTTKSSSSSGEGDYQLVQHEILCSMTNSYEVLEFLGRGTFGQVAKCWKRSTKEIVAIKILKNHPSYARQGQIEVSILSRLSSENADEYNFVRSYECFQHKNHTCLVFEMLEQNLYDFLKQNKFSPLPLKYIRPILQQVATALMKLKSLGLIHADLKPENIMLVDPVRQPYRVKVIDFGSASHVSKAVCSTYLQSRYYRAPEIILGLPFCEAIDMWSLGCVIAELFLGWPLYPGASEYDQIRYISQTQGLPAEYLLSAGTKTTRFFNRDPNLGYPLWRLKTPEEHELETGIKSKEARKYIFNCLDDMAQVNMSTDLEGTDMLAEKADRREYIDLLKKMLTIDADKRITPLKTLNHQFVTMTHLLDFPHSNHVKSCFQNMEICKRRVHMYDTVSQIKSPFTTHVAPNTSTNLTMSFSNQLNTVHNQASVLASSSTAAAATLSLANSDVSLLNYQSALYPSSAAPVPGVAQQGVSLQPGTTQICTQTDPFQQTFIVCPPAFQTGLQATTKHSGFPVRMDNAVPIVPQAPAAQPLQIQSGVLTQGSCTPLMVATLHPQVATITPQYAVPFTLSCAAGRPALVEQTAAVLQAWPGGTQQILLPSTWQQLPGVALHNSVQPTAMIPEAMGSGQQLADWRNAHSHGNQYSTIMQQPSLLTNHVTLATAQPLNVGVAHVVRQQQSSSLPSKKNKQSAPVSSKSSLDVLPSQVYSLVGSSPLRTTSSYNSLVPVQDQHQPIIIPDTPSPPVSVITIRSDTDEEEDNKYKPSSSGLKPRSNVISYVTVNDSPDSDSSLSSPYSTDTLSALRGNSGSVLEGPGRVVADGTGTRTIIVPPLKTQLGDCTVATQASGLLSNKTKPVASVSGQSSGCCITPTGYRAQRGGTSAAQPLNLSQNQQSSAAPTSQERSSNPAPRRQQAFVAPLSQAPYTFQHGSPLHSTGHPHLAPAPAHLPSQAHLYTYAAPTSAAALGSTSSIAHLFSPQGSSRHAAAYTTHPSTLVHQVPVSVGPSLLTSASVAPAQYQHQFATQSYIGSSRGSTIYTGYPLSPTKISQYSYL
Sequence of FRK (human) (P42685 whole entry, looked up): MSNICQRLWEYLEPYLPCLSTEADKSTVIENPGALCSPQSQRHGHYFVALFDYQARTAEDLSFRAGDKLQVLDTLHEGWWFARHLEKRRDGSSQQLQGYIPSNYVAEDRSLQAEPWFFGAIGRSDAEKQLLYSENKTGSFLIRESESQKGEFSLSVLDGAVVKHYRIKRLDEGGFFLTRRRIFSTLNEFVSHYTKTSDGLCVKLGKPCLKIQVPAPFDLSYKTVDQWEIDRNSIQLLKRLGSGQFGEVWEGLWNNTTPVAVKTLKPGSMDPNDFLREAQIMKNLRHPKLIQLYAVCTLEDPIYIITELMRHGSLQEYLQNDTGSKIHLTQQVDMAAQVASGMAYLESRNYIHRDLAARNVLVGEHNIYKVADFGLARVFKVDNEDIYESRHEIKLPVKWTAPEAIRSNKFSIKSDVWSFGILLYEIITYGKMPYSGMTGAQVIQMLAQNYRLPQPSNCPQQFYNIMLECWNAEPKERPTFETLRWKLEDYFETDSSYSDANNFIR

In the case of `CN1CCN(c2ccc(C(=O)Nc3ncc4c(n3)N(C)c3ccccc3C(=O)N4C)cc2)CC1`, the kinase still bound, per cent of control on SYK (human) worked out at 100%; at PRKG1 (human), 100%; at TYRO3 (human) it was 100%; on FRK (human) it was 100%; at BLK (human) it was 100%; on ERBB2 (human) it was 88%. Moreover, the kinase still bound, per cent of control was found to be 100% on CAMK1 (human); 100% in assay [1]; 100% at MARK3 (human); 100% in assay [2]; 100% at TNNI3K (human); 87% at BRSK1 (human). In addition, the kinase still bound, per cent of control on ALK (human) and on MUSK (human) was 100% throughout.

What is called pIC50 is −log10 of the IC50, conventionally taken in molar units. `N=C1NC(=O)/C(=C/c2ccc(-c3ccc(F)cc3O)o2)S1`: the figures for the pIC50 on PIM2 (human) and at PIM1 (human) were 7.02 and 6.96, respectively.

Consider `O=C1NC(=S)S/C1=C\c1ccc(-c2cncc3ccccc23)o1`, for which the kinase still bound, per cent of control is 27% at CAMK1 (human), 28% at BRSK1 (human) and 30% at ALK (human). Besides, the results for the pIC50 against PIM2 (human) and at PIM1 (human) were 7.04 and 6.55, respectively.

Take `COc1cc(N2CCN(C)CC2)ccc1Nc1ncc2c(n1)N(C)c1sccc1C(=O)N2C`: the kinase still bound, per cent of control on SYK (human) amounted to 100%; on PRKG1 (human), 100%; at TYRO3 (human) it was 76%; at FRK (human), 13%; at BLK (human), 100%; at ERBB2 (human) it was 89%. The kinase still bound, per cent of control is 71% on CAMK1 (human); 78% in assay [1]; 91% at MARK3 (human); 82% in [2]; 84% on TNNI3K (human); 81% at BRSK1 (human). Besides, the kinase still bound, per cent of control at ALK (human) was 44%; at MUSK (human), 100%.

In the case of `CN1C(=O)c2ccccc2N(C)c2nc(NS(=O)(=O)c3ccc(N)cc3)ncc21`, the kinase still bound, per cent of control at SYK (human), at PRKG1 (human), on TYRO3 (human), on FRK (human), on BLK (human) and on ERBB2 (human) was 100% throughout. The kinase still bound, per cent of control on CAMK1 (human) turned out to be 100%; in [1], 100%; on MARK3 (human), 100%; in [2] it was 96%; at TNNI3K (human), 100%; at BRSK1 (human) it was 97%. For the same compound, the kinase still bound, per cent of control on ALK (human) and at MUSK (human) was 100% throughout.

Consider `COc1cc(N2CCN(C)CC2)ccc1Nc1ncc2c(n1)Nc1ccccc1NC2=O`, for which the kinase still bound, per cent of control at SYK (human) is 91%; at PRKG1 (human), 100%; at TYRO3 (human), 100%; at FRK (human), 93%; at BLK (human), 49%; at ERBB2 (human), 5%. Also, the kinase still bound, per cent of control at CAMK1 (human) stood at 100%; in assay [1] it was 69%; on MARK3 (human) it was 100%; in [2] it was 15%; at TNNI3K (human), 87%; on BRSK1 (human), 91%. The figures for the kinase still bound, per cent of control at ALK (human) and at MUSK (human) were 53% and 100%, respectively.

For `CS(=O)(=O)Nc1ccc(-c2cc(/C=C3\SC(=N)NC3=O)c[nH]c2=O)cc1`, the pIC50 is 6.52 against HIPK2 (human) and 5.94 at HIPK1 (human).

In assay [1], `Nc1cccc(-c2cc(/C=C3\SC(=O)NC3=O)c[nH]c2=O)c1` displayed a kinase still bound, per cent of control of 14%. The pIC50 is 6.78 against HIPK2 (human) and 6.61 against HIPK1 (human).

With `N=C1NC(=O)/C(=C/c2ccc(-c3ccccc3O)o2)S1`, the pIC50 was 6.94 against PIM2 (human) and 7.03 on PIM1 (human).

As to `CS(=O)(=O)Nc1ccc(-c2ncc(/C=C3\SC(=N)NC3=O)s2)cc1`, the kinase still bound, per cent of control in [2] stood at 26%.

`COc1cc(N2CCC(O)CC2)ccc1Nc1ncc2c(n1)N1CCc3cccc(c31)C(=O)N2C`: the kinase still bound, per cent of control came to 100% at SYK (human); 85% on PRKG1 (human); 100% at TYRO3 (human); 81% at FRK (human); 100% on BLK (human); 92% on ERBB2 (human). In addition, the kinase still bound, per cent of control was 78% on CAMK1 (human); 81% in assay [1]; 88% at MARK3 (human); 93% in assay [2]; 100% at TNNI3K (human); 100% on BRSK1 (human). The kinase still bound, per cent of control at ALK (human) is 36%; at MUSK (human) it was 100%.

Consider `N=C1NC(=O)/C(=C/c2ccc(-c3ccc(C(N)=O)cc3O)o2)S1`, for which the pIC50 is 7.24 against PIM2 (human) and 7.49 against PIM1 (human).

For the compound `CN1C(=O)[C@H]2CCC[C@H]2N(C2CCCC2)c2nc(Nc3ccc(C(N)=O)cc3)ncc21`, the kinase still bound, per cent of control at TYRO3 (human) turned out to be 31%.

`CSC1=NC(=O)/C(=C/c2c[nH]c(=O)c(-c3ccc(NS(C)(=O)=O)cc3)c2)S1`: the pIC50 against HIPK2 (human) was 6.21; against HIPK1 (human), 5.71.

With `N=C1NC(=O)/C(=C/c2ccc(-c3csc4ccccc34)o2)S1`, the kinase still bound, per cent of control worked out at 20% on MARK3 (human) and 32% on ALK (human). In addition, the values for the pIC50 against PIM2 (human) and against PIM1 (human) were 6.20 and 5.49, respectively.

For `CS(=O)(=O)Nc1ccc(-c2cncc(/C=C3\SC(=N)NC3=O)c2)cc1`, the kinase still bound, per cent of control was found to be 34% in assay [3] and 32% at BRAF (human).

Take `COc1cc(N2CCN(C)CC2)ccc1Nc1ncc2c(n1)N(C)c1ccccc1N(C)C2=O`: the kinase still bound, per cent of control on SYK (human) was 99%; at PRKG1 (human), 100%; on TYRO3 (human) it was 100%; on FRK (human) it was 51%; at BLK (human), 93%; at ERBB2 (human), 6.6%. Further, the kinase still bound, per cent of control at CAMK1 (human) is 100%; in assay [1], 100%; on MARK3 (human), 98%; in [2] it was 78%; at TNNI3K (human), 100%; on BRSK1 (human), 84%. Further, the kinase still bound, per cent of control is 11% at ALK (human) and 100% at MUSK (human).

Turning to `N=C1NC(=O)/C(=C/c2c[nH]c(=O)c(-c3ccc(N4CCNCC4)nc3)c2)S1`, the results for the pIC50 against HIPK2 (human) and on HIPK1 (human) were 6.54 and 6.29, respectively.

The record behind these values is the kinase profiling compilation of Christmann-Franck et al. (2016).
